# Experiments:
# Her2-A20 cell = Her2-A20 cell subcutaneous tumor, Herceptin and compound c (Experimental Example 19); assay type: in vivo, BALB/c-nude mice; settings: Herceptin 20 mg/kg i.p. (2 doses) + compound c 10 mg/kg/day oral; 15 days after administration
# Method: At first, A20 cell line (mouse B lymphoma) was transfected with human Her2 cDNA using MIGR1 vector to prepare transformed cells (hereinafter, “Her2-A20 cell”). The Her2-A20 cells (5×10^6) were subcutaneously inoculated into BALB/c-nude mice. […] Compound c or physiological saline was administered once a day, 5 doses in total (day 0 to day 4). […] Compound c or physiological saline was administered once a day, 7 doses in total (day 7 to day 13).
# [1] = tested on: long-term hematopoietic stem cells; assay: Long-term hematopoietic stem cells: 15 weeks after transplantation, successive transplantation, limiting dilution (Experimental Example 10); assay type: in vivo, mice
# Method: 15 weeks after bone-marrow transplantation, the control group, tPA group, and compound a-administered group (12 mice for each group) were measured for the number of bone-marrow mononucleic cells (BM MNC), frequency and absolute number of Lin-SLAM cells, and frequency of and absolute number LSK-CD34 negative cells.
# 15 weeks after the initial bone-marrow transplantation, bone marrow was collected from mice of the control group, tPA group, and compound a-administered group, and the collected bone marrow was transplanted into other mice (successive transplantation). In the successive transplantation, none of physiological saline, tPA, or compound a was administered.
# 12 weeks after successive transplantation, the chimerism of donor-derived bone marrow hematopoietic cells was measured.
# To compare the frequency of long-term hematopoietic stem cell, donor-derived bone marrow to be transplanted first was diluted and transplanted, and the effect of PAI-1 inhibition was evaluated by a limiting dilution technique.
# The collected bone-marrow mononucleic cells were diluted such that Ly5.1 positive bone-marrow mononucleic cell count gave 2×10E3, 6×10E3, 2×10E4, and 6×10E4, and then Ly5.1 positive bone-marrow mononucleic cells of each count were transplanted, together with 5×10E5 Ly5.2 positive competitor cells, into 20 mice. For transplantation, mice were divided into 2 groups, i.e., a compound a-administered group to which compound a was to be administered and a control group to which physiological saline was to be administered (8 groups in total), and the chimerism (the positive rate of Ly5.1 positive bone-marrow mononucleic cells) was measured 12 weeks after the transplantation.
# Further, bone marrow was collected from the control groups and the compound a-administered groups to both of which Ly5.1 positive bone-marrow mononucleic cells of the above-described numbers were transplanted, and the collected bone marrow was successively transplanted into other mice. At the time successive transplantation was conducted, neither physiological saline nor the compound was administered. 12 weeks after the successive transplantation, bone marrow was collected from the mice, and Ly5.1 positive cells in the bone-marrow mononucleic cells were measured.
# After successive transplantation, the frequency (CRU frequency) of hematopoietic stem cells having the hematopoietic regeneration capacity was calculated.
# [2] = tested on: human hematopoietic stem cells; assay: Transplantation of human CD34+ umbilical cord blood cells into irradiated severely immunocompromised mice (Experimental Example 2); assay type: in vivo; settings: 100 mg/kg oral, 6 doses, 7 days after cell transplantation
# Method: Severely immunocompromised mice (recipient) were exposed to radiation (2Gy), and two days later, human CD34^+ cells isolated from human umbilical cord blood were transplanted into the mice. Concurrently with the transplantation, compound a was orally administered into the mice as a test compound (dosage: 100 mg/kg), and the compound was further administered for 5 consecutive days; i.e., 6 doses in total (see FIG. 2A). 2 days after the last administration (7 days after the cell transplantation), the bone-marrow cells were collected, and the abundance ratio of human hematopoietic cells was measured with a flow cytometric analyzer, whereas the cKitL concentration (μg/mL) and VEGF concentration (μg/mL) in the plasma were also measured.
# hematopoietic stem cells = assay: Hematopoietic recovery after total-body radiation (9Gy) and bone-marrow transplantation (Experimental Example 4); assay type: in vivo, C57BI6/J mice
# Method: Specifically, C57BI6/J mice (recipient), which were wild-type inbred strain mice, were treated with total-body radiation (9Gy), and four hours later, bone-marrow cells were transplanted into the mice. Concurrently with the transplantation, compound a was administered to the mice as a test compound via oral gavage (dosage 100 mg/kg), and compound a was daily administered orally for 5 consecutive days (administered group).
# The survival rate of the mice after bone-marrow transplantation was tracked over time (each group: n=15).
# Bone-marrow cells collected from the mice (administered group and control group) 7 days after bone-marrow transplantation were measured for the presence of Lin-SLAM cells with a flow cytometric analyzer (see FIG. 5A). Each test was independently conducted (each group: n=6).
# The proportion (%) of Lin-SLAM cells in the whole bone marrow, the total number of Lin-SLAM cells in the bone marrow, the proportion (%) of LSK-CD34 negative cells in the bone marrow, and the total number of LSK-CD34 negative cells in the bone marrow were measured.
# The bone-marrow cells collected from the mice (administered group, control group) 7 days after bone-marrow transplantation were measured for the plasminogen (Plg) mRNA expression level, tPA mRNA expression level, and PAI-1 mRNA expression level.
# Bone marrow was collected from the mice (administered group and control group) 13 weeks after bone-marrow transplantation, and the following was measured: the total number of whole bone marrow (FIG. 7A), the proportion (%) of LSK-CD34 negative cells in the whole bone marrow (FIG. 7B), the total number of CD34(−)KSL cells in the whole bone marrow (FIG. 7C), the proportion (%) of Lin-SLAM cells in the whole bone marrow (FIG. 7D), the total number of Lin-SLAM cells in the whole bone marrow (FIG. 7E), the proportion (%) of bone marrow differentiated cells (CD45.1/Mac1/Gr1 cell) in the whole bone marrow (FIG. 7F), the total number of bone marrow differentiated cells (CD45.1/Mac1/Gr1 cell) in the whole bone marrow (FIG. 7G), the proportion (%) of B-cell lymphoid differentiated cells (CD45.1/B 220 cell) in the whole bone marrow (FIG. 7H), and the total number of B cell lymphoid differentiated cells (CD45.1/B 220 cell) in the whole bone marrow (FIG. 7I). The results are shown in the above-stated figures.
# [3] = Single-dose toxicity test using rat (Experimental Example 6); settings: 500, 1,000, and 2,000 mg/kg oral gavage
# [4] = 100 mg/kg oral gavage, 5 consecutive days, days 2, 7, 21 after bone-marrow transplantation, versus vehicle control
# [5] = 100 mg/kg oral, 7 days after bone-marrow transplantation
smiles,measurement,setting,value
"O=C(Nc1ccc(Cl)cc1C(=O)O)c1cccc(-c2ccccc2)c1 [Example 4, 2-[(biphenyl-3-ylcarbonyl)amino]-5-chlorobenzoic acid]",tumor volume versus other groups,Her2-A20 cell,significantly smaller
"O=C(COCC(=O)N1CCN(C(c2ccccc2)c2ccccc2)CC1)Nc1ccc(Cl)cc1C(=O)[O-].[Na+] [Example 30 (compound group 2), 2-(2-(2-(4-benzhydrylpiperazin-1-yl)-2-oxoethoxy)acetamido)-5-chlorobenzoic acid sodium salt]",chimerism of donor-derived bone marrow hematopoietic cells,"[1]; 12 weeks after successive transplantation, compound given only at first transplantation",marked increase
same,"number of bone-marrow mononucleic cells, frequency and absolute number of LSK-CD34 negative cells and of Lin-SLAM cells","[1]; 15 weeks after bone-marrow transplantation, among control, tPA and compound a groups",highest values
same,"frequency of hematopoietic stem cells having the hematopoietic regeneration capacity, versus control",[1]; after successive transplantation,≥ 6 time higher
same,chimerism (positive rate of Ly5.1 positive bone-marrow mononucleic cells),"[1]; limiting dilution 2×10E3 to 6×10E4 cells, 12 weeks after transplantation",significant increases
same,"absolute number of human hematopoietic cells in the bone marrow, versus control group",[2]; control PBS,3 to 10 times higher
same,"chimerism of human hematopoietic cells (CD45+) in the bone marrow, versus control group",[2]; control PBS,2 to 9 times higher
same,VEGF in the plasma,[2]; versus control,increased
same,cKitL in the plasma,[2]; versus control,increased
same,proportion of CD34+ cell (human HSC) contained in human hematopoietic cells,[2]; versus control,increased
same,cKitL level in plasma,hematopoietic stem cells; [4],significantly higher
same,plg level in plasma,hematopoietic stem cells; [4],significantly higher
same,tPA level in plasma,hematopoietic stem cells; [4],significantly higher
same,total MMP-9 level in plasma,hematopoietic stem cells; [4],significantly higher
same,white blood cell count in the peripheral blood,hematopoietic stem cells; [4],significantly higher
same,survival rate of the mice after bone-marrow transplantation,"hematopoietic stem cells; 100 mg/kg oral, concurrently with transplantation and 5 consecutive days, versus control group",significantly higher
same,"whole bone marrow cell number; proportion and total number of LSK-CD34 negative cells, Lin-SLAM cells, bone marrow differentiated cells, B-cell lymphoid differentiated cells","hematopoietic stem cells; 100 mg/kg oral, 13 weeks after bone-marrow transplantation, versus vehicle control",significantly higher
same,"frequency of hematopoietic stem cells (Lin-SLAM cells, LSK-CD34 negative cells in bone marrow)",hematopoietic stem cells; [5],increases
same,"mRNA expression of plasminogen, tissue-type plasminogen activator, and plasminogen activator inhibitor 1 in bone marrow",hematopoietic stem cells; [5],induces
same,autopsy findings,[3]; after 2 weeks,no particular abnormality
same,abnormality during 2-week monitoring,[3]; male and female rats,None of the male and female rats showed abnormality
same,toxicity given in a single dose,"[3]; male and female rats, monitored 2 weeks",low
